Experimental findings from DBAASP are described below.

Holding throughout (experiment): ≥ marks a high value that may be exact or a test limit, other limits are often not marked, values filed in µg/mL are converted to µM
In experiment [1] the test system is Proteus vulgaris KCTC 2433.
Experiment [2] relates to Candida albicans KCTC 7270.
Experiment [3] concerns Staphylococcus aureus ATCC 25923.
In experiment [4] the test system is Staphylococcus epidermidis ATCC 12228.
The subject of experiment [5] is Listeria monocytogenes KCTC 3710.
Experiment [6] has as its system Aspergillus fumigatus KCTC 6145.
In experiment [7] the test system is Pseudomonas aeruginosa ATCC 15692.
Experiment [8] concerns Trichosporon beigelii KCTC 7707.
Experiment [9] deals with Bacillus subtilis KCTC 1998.
Experiment [10] has as its system Aspergillus awamori KCTC 6915.
Experiment [11] concerns Aspergillus flavus KCTC 6905.
For experiment [12], the system named is Escherichia coli ATCC 25922.
In experiment [13] the test system is Salmonella typhimurium KCTC 1926.
Experiment [14] deals with Aspergillus parasiticus KCTC 6598.
The subject of experiment [15] is Vibrio cholerae MTCC 3904.
Experiment [16] relates to Micrococcus luteus MTCC 106.
In experiment [17] the test system is Batrachochytrium dendrobatidis JEL-197.
Experiment [18] concerns Candida albicans ATCC 2002.
The subject of experiment [19] is Pseudomonas aeruginosa CMCCB 10104.
For experiment [20], the system named is Staphylococcus aureus ATCC 2592.
Experiment [21] concerns Escherichia coli DH5alpha.
Experiment [22] deals with Staphylococcus xylosus.
Experiment [23] concerns Staphylococcus aureus ATCC 33592.
Experiment [24] relates to Pseudomonas aeruginosa PAO1.
Experiment [25] concerns Acinetobacter baumannii ATCC BAA-1794.
Experiment [26] relates to Escherichia coli ATCC 51659.
The test system of experiment [27] is Escherichia coli ATCC 2592.
Experiment [28] relates to Staphylococcus aureus 1550.
The test system of experiment [29] is Staphylococcus aureus ATCC 6538.
Experiment [30] concerns Micrococcus luteus ATCC 9341.
Experiment [31] relates to Pseudomonas aeruginosa ATCC 9027.
Experiment [32] deals with Escherichia coli K-12.
For experiment [33], the system named is Staphylococcus aureus.
The subject of experiment [34] is Staphylococcus aureus UAMS-1.
For experiment [35], the system named is Escherichia coli DC2.

Values after ≈ are worked out from the molar mass of the structure shown.

As a reminder, the MIC is the smallest concentration in the dilution series that meets the test's criterion for growth inhibition. Low values mean inhibition by little substance, high ones a need for much substance. With `CC[C@H](C)[C@H](NC(=O)[C@H](CCCCN)NC(=O)[C@H](CCCCN)NC(=O)[C@H](Cc1ccccc1)NC(=O)[C@H](CC(C)C)NC(=O)[C@H](CCCCN)NC(=O)[C@H](CCCCN)NC(=O)[C@H](CC(C)C)NC(=O)[C@H](CCCN=C(N)N)NC(=O)[C@H](CCCCN)NC(=O)[C@H](C)N)C(=O)N[C@@H](Cc1c[nH]c2ccccc12)C(=O)N[C@@H](CC(N)=O)C(=O)N[C@@H](Cc1c[nH]c2ccccc12)C(=O)N[C@@H](CCCCN)C(N)=O` [AKRLKKLFKKIWNWK], the MIC was found to be 4 µM (≈ 7.95 µg/mL) in [1]; 8 µM (≈ 15.9 µg/mL) in experiment [2]; 2 µM (≈ 3.97 µg/mL) in experiment [3]; 2.83 µM (≈ 5.62 µg/mL) in experiment [4]; 2 µM (≈ 3.97 µg/mL) in [5]; 8 µM (≈ 15.9 µg/mL) in experiment [6]. Besides, the MIC turned out to be 1 µM (≈ 1.99 µg/mL) in [7]; 16 µM (≈ 31.8 µg/mL) in experiment [8]; 2 µM (≈ 3.97 µg/mL) in experiment [9]; 16 µM (≈ 31.8 µg/mL) in [10]; 16 µM (≈ 31.8 µg/mL) in experiment [11]; 4 µM (≈ 7.95 µg/mL) in experiment [12]. Moreover, the figures for the minimal inhibitory concentration (MIC) in experiment [13] and in experiment [14] were 1 µM (≈ 1.99 µg/mL) and 8 µM (≈ 15.9 µg/mL), respectively.
Turning to `CC(C)C[C@H](NC(=O)[C@H](Cc1cnc[nH]1)NC(=O)[C@@H](NC(=O)[C@H](CC(C)C)NC(=O)[C@@H]1CSSC[C@H](NC(=O)[C@H](CO)NC(=O)[C@H](Cc2ccccc2)NC(=O)[C@@H]2CCCN2C(=O)[C@@H](NC(=O)[C@@H]2CCCN2C(=O)[C@H](C)N)C(C)C)C(=O)N[C@@H]([C@@H](C)O)C(=O)N[C@@H](CCCN=C(N)N)C(=O)NCC(=O)N1)[C@@H](C)O)C(=O)N[C@H](C(=O)O)C(C)C` [APVPFSCTRGCLTHLV], the minimal inhibitory concentration (MIC) in experiment [15] amounted to 25.4 µM (≈ 43.2 µg/mL); in [16] it was 6.3 µM (≈ 10.7 µg/mL).
For `CC[C@H](C)[C@H](NC(=O)[C@H](CCCCN)NC(=O)[C@H](CCCCN)NC(=O)[C@H](CC(C)C)NC(=O)[C@@H](NC(=O)[C@H](CCC(N)=O)NC(=O)CNC(=O)[C@H](C)NC(=O)[C@@H](NC(=O)CNC(=O)[C@H](C)NC(=O)[C@@H](NC(=O)[C@@H](NC(=O)[C@@H]1CCCN1C(=O)[C@H](Cc1ccccc1)NC(=O)[C@@H](N)Cc1ccccc1)[C@@H](C)CC)C(C)C)C(C)C)C(C)C)C(=O)N[C@@H](Cc1ccc(O)cc1)C(=O)N[C@H]1CSSC[C@@H](C(=O)O)NC(=O)[C@H](CCCCN)NC(=O)[C@H](CCCCN)NC(=O)[C@H](CO)NC(=O)[C@H]([C@@H](C)CC)NC(=O)[C@H]([C@@H](C)O)NC1=O` [FFPIVAGVAGQVLKKIYCTISKKC], the MIC in experiment [17] amounted to 20 µM (≈ 52.2 µg/mL); in experiment [12] it was 14 µM (≈ 36.6 µg/mL).
For the compound `CC[C@H](C)[C@H](N)C(=O)N[C@@H](CC(C)C)C(=O)NCC(=O)N1CCC[C@H]1C(=O)N[C@H](C(=O)N[C@@H](CC(C)C)C(=O)NCC(=O)N[C@@H](CC(C)C)C(=O)N[C@H](C(=O)NCC(=O)N[C@@H](CC(N)=O)C(=O)N[C@@H](C)C(=O)N[C@@H](CC(C)C)C(=O)NCC(=O)NCC(=O)N[C@@H](CC(C)C)C(=O)N[C@H](C(=O)N[C@@H](CCCCN)C(=O)N[C@@H](CCCCN)C(=O)N[C@H](C(N)=O)[C@@H](C)CC)[C@@H](C)CC)C(C)C)C(C)C` [ILGPVLGLVGNALGGLIKKI], the MIC in experiment [18] worked out at 2.57 µM (≈ 5 µg/mL); in experiment [19], 10.3 µM (≈ 20 µg/mL); in experiment [20] it was 5.14 µM (≈ 10 µg/mL); in experiment [12] it was 10.3 µM (≈ 20 µg/mL).
On to `CC[C@H](C)[C@H](NC(=O)[C@H](CCCCN)NC(=O)[C@H](CCCCN)NC(=O)[C@@H](N)CCCCN)C(=O)N[C@H](C(=O)N[C@H](C(=O)N[C@H](C(=O)N[C@H](C(=O)N[C@H](C(=O)N[C@@H](CCCCN)C(=O)N[C@@H](CCCCN)C(=O)N[C@@H](CCCCN)C(=O)O)[C@@H](C)CC)[C@@H](C)CC)[C@@H](C)CC)[C@@H](C)CC)[C@@H](C)CC` [KKKIIIIIIKKK], for which the MIC stood at 8 µM (≈ 11.7 µg/mL) in experiment [21] and 0.5 µM (≈ 0.733 µg/mL) in experiment [22].
For the compound `CC(C)C[C@H](NC(=O)[C@H](CCCCN)NC(=O)[C@H](CCC(=O)O)NC(=O)[C@H](CCCCN)NC(=O)[C@@H](NC(=O)[C@H](CCCCN)NC(=O)[C@H](CCCCN)NC(=O)[C@H](Cc1ccccc1)NC(=O)[C@H](Cc1cnc[nH]1)NC(=O)[C@H](CCC(=O)O)NC(=O)[C@H](CO)NC(=O)[C@H](Cc1ccccc1)NC(=O)[C@H](Cc1c[nH]c2ccccc12)NC(=O)[C@H](CC(N)=O)NC(=O)[C@H](CCCN=C(N)N)NC(=O)[C@@H](NC(=O)[C@@H](N)CCCCN)[C@@H](C)O)C(C)C)C(=O)N[C@@H](CCCCN)C(=O)N[C@@H](CC(=O)O)C(=O)N[C@H](C(=O)N[C@@H](Cc1ccccc1)C(=O)N[C@@H](C)C(=O)O)[C@@H](C)O` [KTRNWFSEHFKKVKEKLKDTFA], the MIC was not below 90.3 µM in experiment [23], more than 90.3 µM in experiment [24], not below 90.3 µM in experiment [25] and not below 90.3 µM in experiment [26].
Take `CC(C)C[C@H](NC(=O)[C@@H](NC(=O)[C@H](CCCCN)NC(=O)[C@H](Cc1ccccc1)NC(=O)[C@@H](NC(=O)[C@@H](NC(=O)[C@H](CCCCN)NC(=O)[C@@H](N)CC(C)C)C(C)C)C(C)C)C(C)C)C(=O)N[C@@H](Cc1ccccc1)C(=O)N[C@@H](CCCCN)C(=O)O` [LKVVFKVLFK]: the MIC in experiment [27] came to 18 µM (≈ 22 µg/mL); in experiment [28], 13.1 µM (≈ 16 µg/mL); in experiment [29] it was 10.2 µM (≈ 12.5 µg/mL); in experiment [30], 9.01 µM (≈ 11 µg/mL); in experiment [31], 13.1 µM (≈ 16 µg/mL).
As to `CC[C@H](C)[C@H](NC(=O)[C@H](CCCCN)NC(=O)[C@H](CCC(=O)O)NC(=O)[C@H](CCCCN)NC(=O)[C@H](CO)NC(=O)[C@H](CCCCN)NC(=O)[C@H](CCCN=C(N)N)NC(=O)[C@H](Cc1ccccc1)NC(=O)[C@H](Cc1ccccc1)NC(=O)[C@H](CC(=O)O)NC(=O)CNC(=O)[C@H](CC(C)C)NC(=O)[C@@H](N)CC(C)C)C(=O)NCC(=O)N[C@@H](CCCCN)C(=O)N[C@@H](CCC(=O)O)C(=O)N[C@@H](Cc1ccccc1)C(=O)N[C@@H](CCCCN)C(=O)N[C@@H](CCCN=C(N)N)C(=O)N[C@H](C(=O)N[C@H](C(=O)N[C@@H](CCC(N)=O)C(=O)N[C@@H](CCCN=C(N)N)C(=O)O)C(C)C)[C@@H](C)CC` [LLGDFFRKSKEKIGKEFKRIVQR], the MIC in experiment [32] is not below 160 µM; in experiment [33] it was more than 24 µM; in experiment [34], not below 160 µM; in experiment [35], 9 µM (≈ 25.4 µg/mL).
